{
  "source": "patent US8853194B2",
  "about": "“Sterol derivatives and their synthesis and use” (priority 2009, dated 2014)",
  "key": {"mouse hepatoma cells H22": {"tested_on": "mouse hepatoma cells H22", "procedure": "Ascites mice S180 and H22 that had been vaccinated 7 days were sacrificed by cervical, from which ascites were obtained under sterile conditions respectively; the obtained ascites were washed twice with culture medium RPMI1640, and prepared to a 2×10^7/ml suspension in sterile physiological saline. The suspension of cell S180 was inoculated subcutaneously in the right axillas of 40 mice (0.1 ml/mouse) to produce solid tumor models; while the suspension of cell H22 was inoculated in abdominal cavities of 40 mice (0.2 ml/mouse) by conditional means under sterile conditions to produce ascites tumor models.\n90 mice were randomly divided into 9 groups of 3 types, wherein the first type group was a normal control group, the second type groups were S180 solid tumor groups including a positive (cyclophosphamide) control group, a negative control group, a low dose group and a high dose group, and the third type groups were H22 ascites groups including a positive (cyclophosphamide) control group, a negative control group, a low dose group and a high dose group. There were 10 mice in each group. The experiment was repeated for three times.\n[…], the negative control group was injected same volume of corn oil, and the positive control group was injected cyclophosphamide injection solution with the dose of 0.02 g/(Kg.d). The used injection volume was 0.1 ml/mouse and the injection was given as intraperitoneal injection every other day for 15 days. During the 15 days, general activities, fur, feces, etc. of the mice were daily observed. 24 hours after the last administration, mice that had been inoculated subcutaneously with S180 were sacrificed by cervical, from which tumors, thymus and spleen were taken out. After the last administration, mice that had been inoculated in abdominal cavities with H22 were conventionally bred continually, weighted and observed the survival time every day until all the mice in the negative group were dead.\n24 hours after the inoculation of ascites, the weight and the amount of abdominal circumference of the mice in the groups of ascites models were measured. The drug administration and breeding were continued according to different groups, the weight and the abdominal circumference were measured daily until one day before death. The weight increase (g) and abdominal-circumference increase (cm) were calculated. The experiment started on the day of tumor inoculation and ended on the day when all the mice in the negative control group were dead; the time of deaths were recorded, and the survival extending rate was calculated. Survival Extending Rate(%)=[(mean survival days of treatment group−mean survival days of negative control group)/mean survival days of control group]×100%\nAfter finishing the administration in all mice in the solid tumor group, the mice were sacrificed and their spleens and livers were weighed by electronic balance. The spleen index was equivalent to the spleen weight (mg) of mice in each group divided by the weight of the mice, while the liver index was equivalent to the liver weight […] divided by the weight (g) of the mice."}, "Caspase 3": {"tested_on": "Caspase 3", "details": "2.0 μg, HepG2 cells, A405", "procedure": "(§1) 2.1.1 HepG2 cells were digested by trypsin in the cell culture medium. The resulting mixture (6000 was centrifuged for 5 minutes at 4° C. to collect the cells. The supernatant was carefully aspirated and discarded. The remains were washed once with PBS, added to lysate (100 μl/2×10^6 cells); and then, after resuspending the precipitation, ice cracked for 15 minutes.\n(§2) 2.1.2 The resulting mixture (16000 g) was centrifuged at 4° C. for 15 minutes.\n(§3) 2.1.3 The supernatant was transferred into a centrifugal tube that was pre-cooled by ice bath.\n2.2.1 Took out pNA and a suitable amount of Ac-DEVD-PNA (2 mM), put them on the ice bath for later use;\n(§4) 2.2.3 Incubating at 37° C. for 120 minutes, detecting Caspase 3 with A405;"}, "Caspase 8": {"tested_on": "Caspase 8", "details": "2.0 μg, HepG2 cells", "procedure": "as §1, §2, §3, §4\n(§5) 2.2.4 Adding Ac-IETD-PNA (2 mM) and Ac-LEHD-PNA (2 mM), respectively, for detecting Caspase 8, 9"}, "Caspase 9": {"tested_on": "Caspase 9", "details": "2.0 μg, HepG2 cells", "procedure": "as §1, §2, §3, §4, §5"}, "P21": {"tested_on": "P21", "details": "tumor tissue, ratio to β-actin, n=3", "procedure": "(§6) 3. Detecting the activity of tumor cells VEGF, P53, P21, Bcl-2 (taking β-Actin as an internal reference)\n(§7) Using Protein Electrophoresis (Western Blot) Method\n(§8) A bean sized tumor tissue dissected previously was shredded and put into a pre-cooled tissue grinder. 400 μl tissue lysis solution was added. After 10 minutes carefully grinding, the mixture was transferred into a 1.5 ml centrifugal tube, and then, after intensely vortexing the tube for 15 seconds, the mixture was placed on ice for 10 minutes and repeatedly oscillated. After centrifuging 20 minutes (12000 rpm), the supernatant was collected, transferred into a pre-cooled Eppendorf tube, and then separately charged and frozen stored at −80° C. for detecting the activity level of various antibodies.\n(§9) 3.4.3 Reaction with the first antibody: The first antibody was diluted by TBST solution at a ratio of 1:200, and then reacted with the PVDF film at 4° C. for a night. In the next day, after balanced at room temperature for one hour, the reaction mixture was washed with TBST for 3 times."}, "P53": {"tested_on": "P53", "details": "tumor tissue, ratio to β-actin, n=3", "procedure": "as §6, §7, §8, §9"}, "VEGF": {"tested_on": "VEGF", "details": "tumor tissue, ratio to β-actin, n=3", "procedure": "as §6, §7, §8, §9"}, "ICR mice": {"tested_on": "ICR mice", "test": "Intraperitoneal injection LD50 for mouse (KORBER's method)", "assay_type": "in vivo", "details": "for Animal deaths: 10 mice, in 7 days", "procedure": "I. Experiment Item: Intraperitoneal injection LD50 for mouse (KORBER's method)\nICR mice (SPF grade), with a weight range of 18-22 g, provided by Vital River Laboratories (VRL) in Beijing, China, were used. There were 5 treatment groups in total, wherein 2000 mg/kg was the highest dose, and the others decreased to 0.8 times, i.e. 1600 mg/kg, 1280 mg/kg, 1024 mg/kg and 819.2 mg/kg. The mice were randomly divided into groups. Each group had 10 mice with half male and half female. Each mouse was introperitoneal injected (0.2 ml/10 g. Observed 3-7 days, a variety of animal responses and the amount of dead mice in each group were recorded. LD50 and confidence limits were calculated by the modified Karber method(Korbor) according to the mortality rate of animals in each group."}, "[1]": {"details": "from LD50 and anti-tumor dose in mice", "text": "I. Experiment Item: the anti-tumor therapeutic index of CL168"}, "Bcl-2": {"tested_on": "Bcl-2", "details": "tumor tissue, ratio to β-actin, n=3"}, "[2]": {"details": "H22 ascites mice, low dose 16 mg/kg i.p. every other day for 15 days"}, "[3]": {"details": "mice, intraperitoneal injection, modified Karber method"}},
  "note": "Several values for one entry are separate records, joined by “and”; a condition that tells them apart may be missing. Equal entries are not always repeated. Where two headings read alike, the source gives them in different places.",
  "data": [
    {"smiles": "CC(C)CCC[C@@H](C)[C@H]1CC[C@@H]2[C@]1(C)CC[C@H]1[C@]23C=C[C@]2(CC(=O)CC[C@]12C)OO3", "note": "[CL168-6, 5α,8α-cyclicobioxygen-6-cholesten-3-one]", "values": [
      {"measurement": "Abdominal circumference increase (cm)", "setting": "mouse hepatoma cells H22; H22 ascites mice, high dose 32 mg/kg i.p. every other day for 15 days", "value": "2.32 ± 0.71^(2)(4) cm"},
      {"measurement": "Abdominal circumference increase (cm)", "setting": "mouse hepatoma cells H22; [2]", "value": "2.84 ± 0.34^(2)(3) cm"},
      {"measurement": "Survival extending rate (%)", "setting": "mouse hepatoma cells H22; [2]", "value": 37.11, "unit": "%"},
      {"measurement": "Survival time (day)", "setting": "mouse hepatoma cells H22; [2]", "value": "13.3 ± 1.77^(4) day"},
      {"measurement": "Weight increase (g)", "setting": "mouse hepatoma cells H22; [2]", "value": "7.16 ± 1.39^(4) g"},
      {"measurement": "Liver index (100 g/g)", "setting": "mouse hepatoma cells H22; mouse, in vivo, ip, 16 mg/kg", "value": "4.9 ± 0.24^(1)(4) 100 g/g"},
      {"measurement": "Spleen index (mg/g)", "setting": "mouse hepatoma cells H22; mouse, in vivo, ip, 16 mg/kg", "value": "6.53 ± 1.29^(2)(4) mg/g"},
      {"measurement": "Liver index (100 g/g)", "setting": "mouse hepatoma cells H22; mouse, in vivo, ip, 32 mg/kg", "value": "5.19 ± 0.64^(2)(4) 100 g/g"},
      {"measurement": "Spleen index (mg/g)", "setting": "mouse hepatoma cells H22; mouse, in vivo, ip, 32 mg/kg", "value": "5.76 ± 0.96^(2)(4) mg/g"},
      {"measurement": "Survival extending rate (%)", "setting": "mouse hepatoma cells H22; mouse, in vivo, ip, 32 mg/kg", "value": 51.55, "unit": "%"},
      {"measurement": "Survival time (day)", "setting": "mouse hepatoma cells H22; mouse, in vivo, ip, 32 mg/kg", "value": "14.7 ± 1.41^(4) day"},
      {"measurement": "Weight increase (g)", "setting": "mouse hepatoma cells H22; mouse, in vivo, ip, 32 mg/kg", "value": "5.05 ± 1.88^(4) g"},
      {"measurement": "OD value of Caspase3", "setting": "Caspase 3; 24 h", "value": 0.190},
      {"measurement": "OD value of Caspase3", "setting": "Caspase 3; 48 h", "value": 0.185},
      {"measurement": "OD value of Caspase8", "setting": "Caspase 8; 24 h", "value": 0.413},
      {"measurement": "OD value of Caspase8", "setting": "Caspase 8; 48 h", "value": 0.408},
      {"measurement": "OD value of Caspase9", "setting": "Caspase 9; 24 h", "value": 0.156},
      {"measurement": "OD value of Caspase9", "setting": "Caspase 9; 48 h", "value": 0.146},
      {"measurement": "relative expression level of P21", "setting": "P21", "value": "0.79±0.07"},
      {"measurement": "relative expression level of P53", "setting": "P53", "value": "0.74±0.03"},
      {"measurement": "relative expression level of VEGF", "setting": "VEGF", "value": "0.46±0.08"},
      {"measurement": "Animal deaths", "setting": "ICR mice; 819.2 mg/kg i.p.", "value": 0},
      {"measurement": "Animal deaths", "setting": "ICR mice; 1024 mg/kg i.p.", "value": 1},
      {"measurement": "Animal deaths", "setting": "ICR mice; 1280 mg/kg i.p.", "value": 3},
      {"measurement": "Animal deaths", "setting": "ICR mice; 1600 mg/kg i.p.", "value": 6},
      {"measurement": "Animal deaths", "setting": "ICR mice; 2000 mg/kg i.p.", "value": 8},
      {"measurement": "Death in the 12 hours after administration", "setting": "ICR mice; 819.2-2000 mg/kg i.p., first 12 hours", "value": "no death appeared"},
      {"measurement": "LD50", "setting": "ICR mice; [3]", "value": "1479.11 mg/kg and 1479 mg/kg"},
      {"measurement": "LD50 95% confidence interval", "setting": "ICR mice; [3]", "value": "1304.19 to 1677.49", "unit": "mg/kg"},
      {"measurement": "anti-tumor therapeutic index (TI)", "setting": "[1]", "value": 49.3},
      {"measurement": "anti-tumor therapeutic index (TI)", "setting": "[1]; listed as CL168", "value": "about 49.3"},
      {"measurement": "relative expression level of bcl-2", "setting": "Bcl-2", "value": "0.75±0.04"}
    ]}
  ]
}
